# US20210308196A1, “COMPOSITIONS AND METHODS TO PROMOTE HOST DEFENSE AND STIMULATE, EXPAND, AND/OR RESET T CELL REPERTOIRES” (EVOLVE BIOSYSTEMS, INC., priority 2018, published 2021)
# Tests used:
# fecal bacteria = experiment: Fecal microscopy (Gram-stained light microscopy, SEM); type: in vivo, human
# Description: Fecal Microscopy. All samples were fixed by adding equal amount of 5% glutaraldehyde in 0.2 M cacodylate buffer (final concentration 2.5% glutaraldehyde in 0.1 M cacodylate buffer) for 1-2 h before being processed for Gram-stained light microscopy and scanning electron microscopy (SEM). For light microscopy, conventional Gram-stained samples on slides were imaged under an EVOS Auto-FL system using a 60× lens and 2.7× optical zoom, under the same setting of the color camera. Five random fields of images were collected from each sample slide. For SEM, since the samples were previously frozen before fixation, the osmium post-fixation, and critical-point dry procedures were not performed. The fixed samples were dehydrated through an ethanol series and placed on membrane filters. The samples were mounted onto the SEM stubs, aired overnight, and then vacuum-oven dried at 50° C. for >2 h before sputter-coating with a thin layer of chromium using Denton Desk V sputter. Images were collected under various magnifications to capture bacterial morphology using a Hitachi […] field-emission SEM. Microscopy confirmed the high levels of Bifidobacterium in samples from the treatment group.
# diabetes mellitus = experiment: Prevention of type 1 diabetes in NOD mice; type: in vivo, mouse; settings: compared to control mice
# Source text: Germ-free non-obese diabetic (NOD) mouse pups are weaned 3 weeks after birth and put on a polysaccharide-free diet that contains Vitamin A. As soon as the mouse pups are weaned, they are gavaged with a dysbiotic (no Bifidobacterium sp. and high proteobacteria) human infant microbiome at Day 1 of the experiment. The mice are divided into 4 groups: control, control plus LNnT, B. infantis, and B. infantis plus LNnT. Mice are given the composition for 21 days. All Groups receive B. infantis or a placebo every 3 days by gavage; the LNnT or placebo is added to the drinking water. Additional mice are divided into 2 groups These groups are gavaged with a healthy human infant microbiome (Bifidobacterium species) at day 21 of the experiment. The mice are then either fed placebo or LNnT in their drinking and receive vitamin A in their chow. Mice are monitored for diabetes with weekly tail vein blood glucose measurements and euthanized following two consecutive daily readings of >[…]. […] Plasma is evaluated for cytokines and innate immune factors. Fecal samples are taken every day and evaluated using qPCR and/or 16s and/or shotgun sequencing for microbial colonization. […]
# peanut extract allergy = experiment: Reversal of murine peanut allergy; type: in vivo, mouse; settings: previously sensitized animals, compared to control mice
# Description: Germ-free pups are weaned 3 weeks after birth and put on a polysaccharide-free diet. Mice are gavaged with a dysbiotic microbiome of Example 3 at Day 1. Mice receive intragastric gavage of peanut extract on day 1 and day 7 at 5 mg/mouse and then 25 mg/mouse at week 5 with 10 μg of Cholera toxin. Elicitation of reaction is performed at eight to ten weeks using intragastric gavage of 10 mg/mouse food antigen (e.g., peanut extract) with vehicle (PBS). At 10 weeks, mice of the test group are fed B. infantis, while control mice receive vehicle gavage only. All mice have access ad labium to LNnT-infused drinking water for a period of 21 days. The mice are re-challenged with the food antigen via intragastric gavage of 10 mg/mouse peanut extract with vehicle (PBS). Anaphylaxis symptoms are evaluated, and then mice are necropsied. Plasma samples are collected for evaluation of histamine and IgE concentrations. White blood cells are isolated for PBMC characterization and evaluation of regulatory T cell population expansion using flow cytometry specific for CD4, CD25, Foxp3, Helios, Neuropilin, CD8, CD44, CD62L, IFNgamma, IL-17.
substance,measurement,setting,value
Bifidobacterium longum subsp. infantis EVC001 [B. infantis EVC001],Bifidobacterium in fecal samples by microscopy,fecal bacteria; samples from the treatment group,high levels
same,Gram staining of fecal smears,"fecal bacteria; three fecal samples, Day 40",overwhelmingly contained Gram-positive bacteria
same,Bacterial morphology in fecal samples,"fecal bacteria; three fecal samples, Day 40, multiple fields of view",uniform morphology of rod-shaped bacteria
same,Incidence of the development of diabetes mellitus,diabetes mellitus,reduces
same,Inflammatory responses to the food antigen,peanut extract allergy,reduces
